Reference: patent US9301962B2, “Male contraceptive compositions and methods of use” (Baylor College of Medicine, priority 2010, dated 2016)

Legend:
BRDT(1) = BRDT(1) (Homo sapiens, UniProt Q58F21); conditions: alpha-screen, H4Kac4 competition
Method: The N-terminal domain of human BRDT was cloned, expressed in E-Coli and purified as previously described (Filippakopoulos et al.).
Assays were performed with minor modifications from the manufacturer's protocol (PerkinElmer, USA). All reagents were diluted in 50 mM HEPES, 150 mM NaCl, 0.1% w/v BSA, 0.01% w/v Tween20, pH 7.5 and allowed to equilibrate to room temperature prior to addition to plates. After addition of Alpha beads to master solutions all subsequent steps were performed in low light conditions. […] Addition to wells was performed with either a multichannel pipet (for optimization experiments) or a Biotek EL406 liquid handler. After a 1 minute 1000 rpm spin-down, 100 nl of compounds from stock plates were added by pin transfer using a Janus Workstation (PerkinElmer, USA). The streptavidin-coated donor beads (25 μg/ml final) were added as with previous solution in a 2×, 10 μl volume. Following this addition, the plates were sealed with foil to block light exposure and to prevent evaporation. The plates were spun down again at 1000 rpm for 1 minute.

[1] = system: C57BL6/J/129S5 hybrid male mice; test: Male fertility, fertilization and embryo developmental potential
Method: Oocytes from these females were collected from their oviductal ampulla and cultured for 2 days to determine their developmental potential post-mating (FIG. 6B).
(§1) The subsequent mixture was injected intraperitoneal into male mice at 1% of the body weight of the mouse (final amount is 50 mg/kg/day). The control was DMSO dissolved 1:10 in (2-Hydroxypropyl)-β-cyclodextrin and injected similarly. […] These studies were approved by the Administrative Committee on Laboratory Animal Care at Baylor College of Medicine, and all experiments were conducted in accordance with the NIH guide for the Care and Use of Laboratory Animals.

[2] = system: C57BL6/J/129S5 hybrid male mice; test: Mouse study: testes size and histology after daily i.p. JQ1
Method: as §1

Structure (SMILES) | activity for BRDT(1) (BRDT(1)) | mating behavior (copulation plugs) ([1]; after 5 weeks of treatment, superovulated females) | effect on impregnation of females ([1]; males treated 3 weeks, housed with 2 females each, 3 more weeks of treatment, n=3) | treated adult male mice that sired two litters after cessation ([1]; within the first month following cessation of JQ1) | Leydig cells of the testes, histology ([2]; 50 mg/kg/day i.p.) | gross testes size compared to control males ([2]; 50 mg/kg/day i.p.) | testosterone-responsive seminal vesicles, gross appearance ([2]; 50 mg/kg/day i.p.) | testis histology ([2]; 50 mg/kg/day i.p., 6 weeks treatment) | number of spermatids positive for transition protein 1 (TNP1) ([2]; immunohistochemistry of testes) | crossing of the blood:testis boundary ([2]; inferred from effect on seminiferous tubule compartment)
Cc1sc2c(c1C)C(c1ccc(Cl)cc1)=N[C@H](CC(=O)OC(C)(C)C)c1nnc(C)n1-2 (racemic) [(−)-JQ1] | inactive |  |  |  |  |  |  |  |  | 
Cc1sc2c(c1C)C(c1ccc(Cl)cc1)=NC(CC(=O)OC(C)(C)C)c1nnc(C)n1-2 (racemic) [JQ1, tert-Butyl 2-(4-(4-chlorophenyl)-2,3,9-trimethyl-6H-thieno[3,2-f][1,2,4]triazolo[4,3-a][1,4]diazepin-6-yl)acetate] |  | did not alter mating behavior | contraceptive effect | 6 of 6 | histologically normal | grossly smaller testes | grossly normal | seminiferous tubule degeneration | reduced | capable of effectively crossing the blood:testis boundary
